Tests used:
[1] = Pharmacokinetics of compound A after conventional formulation (elimination half-life; absorption by deconvolution); conditions: human, in vivo; read-out: elimination half-life (T1/2)
Description: Taking into consideration the results of the clinical trial described above, the present inventors conducted intensive studies to design the formulation by paying attention to the control of a release rate of the drug from a formulation to the extent that the release is not affected by food intake or the like, rather than the addition of release control.
On the basis of blood concentration profiles (in a fasted state/after the intake of food) after administration of a conventional formulation (immediate release formulation), the absorption rate of the drug in a fed state was calculated by a deconvolution method to predict continuous absorption for about 4 hours.

[2] = Pharmacokinetics (PK) test of immediate release formulation (capsule formulation) in human; type: in vivo; conditions: healthy subjects, immediate release capsules, 0.1 to 340 mg
Experimental: The immediate release formulations (capsule formulations) containing 0.1 mg, 1 mg, 5 mg, 20 mg, and 80 mg of the compound A were used in combinations as needed so that the dose of compound A became 0.1 mg, 1 mg, 3 mg, 10 mg, 30 mg, 100 mg, 160 mg, 240 mg, and 340 mg.

half-life [1]: 18 to 24 h
Compound: Nc1nc(CC(=O)Nc2ccc(CCNC[C@H](O)c3ccccc3)cc2)cs1 [Compound A, (R)-2-(2-aminothiazol-4-yl)-4′-[2-[(2-hydroxy-2-phenylethyl)amino]ethyl]acetic acid anilide]
relation between Cmax and the increase in heart rate from the base line [2]: positive correlation
